Data on five compounds can be found in ChEMBL document CHEMBL5724914, “Linking interpersonal differences in gut microbiota composition and drug biotransformation activity” (2024).

Data set [1] can be described thus: The drug is tested on Z-009 corresponding to pig gut metagenome with ENA study accession number: PRJEB37062 and ENA sample accession number: ERS12561809 for biotransformation under anaerobic condition. The drug concentrations were measured over 9 timepoints collected between 0 and 24 hours of incubation by liquid-chromatography-coupled mass spectrometry (LC–MS). The settings on record: 2 µM.

For data set [2] the following is noted: human gut metagenome, 24 h, 2 µM.
A short description of data set [3]: The drug is tested on Z-010 corresponding to metagenome with ENA study accession number: PRJEB37062 and ENA sample accession number: ERS12561810 for biotransformation under anaerobic condition. The drug concentrations were measured over 9 timepoints collected between 0 and 24 hours of incubation by liquid-chromatography-coupled mass spectrometry (LC–MS). The settings on record: 2 µM.

The conditions of data set [4]: human gut metagenome, 24 h, 2 µM. This is another data set of the same source.
The nature of data set [5]: The drug is tested on Z-028 corresponding to mouse gut metagenome with ENA study accession number: PRJEB37062 and ENA sample accession number: ERS12561827 for biotransformation under anaerobic condition. The drug concentrations were measured over 9 timepoints collected between 0 and 24 hours of incubation by liquid-chromatography-coupled mass spectrometry (LC–MS). The following applies: 2 µM.

Data set [6] can be described thus: The drug is tested on Z-021 corresponding to metagenome with ENA study accession number: PRJEB37062 and ENA sample accession number: ERS12561820 for biotransformation under anaerobic condition. The drug concentrations were measured over 9 timepoints collected between 0 and 24 hours of incubation by liquid-chromatography-coupled mass spectrometry (LC–MS). The settings on record: 2 µM.

Data set [7] in a line: The drug is tested on Z-023 corresponding to metagenome with ENA study accession number: PRJEB37062 and ENA sample accession number: ERS12561822 for biotransformation under anaerobic condition. The drug concentrations were measured over 9 timepoints collected between 0 and 24 hours of incubation by liquid-chromatography-coupled mass spectrometry (LC–MS). The settings on record: 2 µM.

Data set [8] can be described thus: The drug is tested on WLS-090 corresponding to human gut metagenome with ENA study accession number: PRJEB37062 and ENA sample accession number: ERS12561753 for biotransformation under anaerobic condition. The drug concentrations were measured over 9 timepoints collected between 0 and 24 hours of incubation by liquid-chromatography-coupled mass spectrometry (LC–MS). The following applies: 2 µM.

Data set [9] is described as follows: The drug is tested on WLS-220 corresponding to human gut metagenome with ENA study accession number: PRJEB37062 and ENA sample accession number: ERS12561769 for biotransformation under anaerobic condition. The drug concentrations were measured over 9 timepoints collected between 0 and 24 hours of incubation by liquid-chromatography-coupled mass spectrometry (LC–MS). The settings on record: 2 µM.

The conditions of data set [10]: human gut metagenome, 24 h, 2 µM. This is another data set of the same source.
A short description of data set [11]: The drug is tested on WLS-310 corresponding to human gut metagenome with ENA study accession number: PRJEB37062 and ENA sample accession number: ERS12561785 for biotransformation under anaerobic condition. The drug concentrations were measured over 9 timepoints collected between 0 and 24 hours of incubation by liquid-chromatography-coupled mass spectrometry (LC–MS). The settings on record: 2 µM.

Data set [12] is described as follows: The drug is tested on Z-026 corresponding to metagenome with ENA study accession number: PRJEB37062 and ENA sample accession number: ERS12561825 for biotransformation under anaerobic condition. The drug concentrations were measured over 9 timepoints collected between 0 and 24 hours of incubation by liquid-chromatography-coupled mass spectrometry (LC–MS). The following applies: 2 µM.

For data set [13] the following is noted: human gut metagenome, 24 h, 2 µM. The source holds these as a separate data set.
For data set [14] the following is noted: human gut metagenome, 24 h, 2 µM. This is another data set of the same source.
Data set [15] in a line: The drug is tested on WLS-038 corresponding to human gut metagenome with ENA study accession number: PRJEB37062 and ENA sample accession number: ERS12561745 for biotransformation under anaerobic condition. The drug concentrations were measured over 9 timepoints collected between 0 and 24 hours of incubation by liquid-chromatography-coupled mass spectrometry (LC–MS). The following applies: 2 µM.

Data set [16] in a line: The drug is tested on Z-018 corresponding to pig gut metagenome with ENA study accession number: PRJEB37062 and ENA sample accession number: ERS12561817 for biotransformation under anaerobic condition. The drug concentrations were measured over 9 timepoints collected between 0 and 24 hours of incubation by liquid-chromatography-coupled mass spectrometry (LC–MS). The settings on record: 2 µM.

The conditions of data set [17]: human gut metagenome, 24 h, 2 µM. The source holds these as a separate data set.
Data set [18] in a line: The drug is tested on Z-024 corresponding to pig gut metagenome with ENA study accession number: PRJEB37062 and ENA sample accession number: ERS12561823 for biotransformation under anaerobic condition. The drug concentrations were measured over 9 timepoints collected between 0 and 24 hours of incubation by liquid-chromatography-coupled mass spectrometry (LC–MS). The settings on record: 2 µM.

Data set [19] can be described thus: The drug is tested on WLS-086 corresponding to human gut metagenome with ENA study accession number: PRJEB37062 and ENA sample accession number: ERS12561752 for biotransformation under anaerobic condition. The drug concentrations were measured over 9 timepoints collected between 0 and 24 hours of incubation by liquid-chromatography-coupled mass spectrometry (LC–MS). The settings on record: 2 µM.

The conditions of data set [20]: human gut metagenome, 24 h, 2 µM. The source holds these as a separate data set.
Further: call rule not given here.

As for `CCOc1cc(CC(=O)N[C@@H](CC(C)C)c2ccccc2N2CCCCC2)ccc1C(=O)O` [REPAGLINIDE], the “Bacterial Biotransformation” value in [1], in [2], in data set [3], in data set [4], in [5] and in [6] was “Compound metabolized” throughout. Moreover, the “Bacterial Biotransformation” value in data set [7] was “Compound metabolized”; in [8], “Compound metabolized”; in data set [9], “Compound metabolized”; in [10], “Compound metabolized”; in data set [11], “Compound metabolized”; in [12], “Compound NOT metabolized”. Moreover, the “Bacterial Biotransformation” value in data set [13] is “Compound metabolized”; in data set [14], “Compound metabolized”; in [15] it was “Compound metabolized”; in data set [16], “Compound NOT metabolized”; in [17], “Compound metabolized”; in data set [18] it was “Compound metabolized”. Also, the “Bacterial Biotransformation” value in data set [19] and in data set [20] was “Compound metabolized” throughout.
Consider `CCCN(CCC)CCc1cccc2c1CC(=O)N2` [ROPINIROLE], for which the “Bacterial Biotransformation” value in data set [1], in data set [2], in data set [3], in data set [4], in data set [5] and in data set [6] was “Compound NOT metabolized” throughout. Moreover, the “Bacterial Biotransformation” value in data set [7] is recorded as “Compound NOT metabolized”; in data set [8] it was “Compound metabolized”; in data set [9] it was “Compound metabolized”; in data set [10] it was “Compound metabolized”; in data set [11], “Compound NOT metabolized”; in data set [12], “Compound NOT metabolized”. For the same compound, the “Bacterial Biotransformation” value was “Compound NOT metabolized” in data set [13]; “Compound NOT metabolized” in data set [14]; “Compound NOT metabolized” in [15]; “Compound metabolized” in data set [16]; “Compound NOT metabolized” in data set [17]; “Compound NOT metabolized” in [18]. Further, the “Bacterial Biotransformation” value is recorded as “Compound metabolized” in [19] and “Compound NOT metabolized” in data set [20].
For the compound `COc1ccc(C(CN(C)C)C2(O)CCCCC2)cc1` (stereo not given) [VENLAFAXINE], the “Bacterial Biotransformation” value in data set [1], in data set [2], in data set [3], in data set [4], in data set [5] and in data set [6] was “Compound NOT metabolized” in each case. Also, the “Bacterial Biotransformation” value in data set [7] was “Compound NOT metabolized”; in data set [8], “Compound NOT metabolized”; in data set [9] it was “Compound NOT metabolized”; in [10], “Compound NOT metabolized”; in data set [11], “Compound metabolized”; in data set [12], “Compound NOT metabolized”. Besides, the “Bacterial Biotransformation” value in data set [13], in data set [14], in data set [15], in data set [16], in [17] and in data set [18] was “Compound NOT metabolized” throughout. Further, the “Bacterial Biotransformation” value in data set [19] and in data set [20] was “Compound NOT metabolized” throughout.
Regarding `O=C1CC2(CCCC2)CC(=O)N1CCCCN1CCN(c2ncccn2)CC1` [BUSPIRONE], the “Bacterial Biotransformation” value in data set [1] is “Compound NOT metabolized”; in data set [2] it was “Compound NOT metabolized”; in data set [3] it was “Compound metabolized”; in data set [4], “Compound NOT metabolized”; in [5] it was “Compound NOT metabolized”; in data set [6], “Compound NOT metabolized”. Further, the “Bacterial Biotransformation” value is listed as “Compound metabolized” in data set [7]; “Compound metabolized” in data set [8]; “Compound NOT metabolized” in [9]; “Compound metabolized” in data set [10]; “Compound metabolized” in data set [11]; “Compound NOT metabolized” in data set [12]. The “Bacterial Biotransformation” value in data set [13] is listed as “Compound metabolized”; in data set [14], “Compound NOT metabolized”; in data set [15], “Compound NOT metabolized”; in data set [16] it was “Compound NOT metabolized”; in [17], “Compound metabolized”; in [18] it was “Compound NOT metabolized”. The “Bacterial Biotransformation” value in data set [19] and in [20] was “Compound metabolized” each time.
In the case of `CC(C)(C)NCC(O)c1cc(Cl)c(N)c(Cl)c1` (stereo not given) [CLENBUTEROL], the “Bacterial Biotransformation” value in [1], in [2], in data set [3], in data set [4], in data set [5] and in data set [6] was “Compound NOT metabolized” in each case. For the same compound, the “Bacterial Biotransformation” value in [7], in [8], in [9], in [10], in data set [11] and in [12] was “Compound NOT metabolized” throughout. Moreover, the “Bacterial Biotransformation” value in data set [13], in [14], in [15], in data set [16], in data set [17] and in [18] was “Compound NOT metabolized” each time. For the same compound, the “Bacterial Biotransformation” value in [19] and in data set [20] was “Compound NOT metabolized” throughout.
